Laboratory results published in publication PMC9080233, “Synthesis and biological evaluation of novel quinolone derivatives dual targeting histone deacetylase and tubulin polymerization as antiproliferative agents” (RSC Advances, 2018).

Assays:
[1] = system: liver cancer cells HepG2; assay: Antiproliferative activity, CCK-8 assay, HepG2; type: cell-based; settings: Homo sapiens, CCK-8, 72 hours, mean ± SD
Experimental: (§2) Antitumor activities in vitro of synthetic compounds were measured using CCK-8 Assay Kit (BPS Bioscience, CA) according to the manufacturer's protocol. […] Control cells were treated with serum free medium. Then CCK-8 solution was added to each well to determine cell viability. The IC50 values were calculated according to the dose-dependent curves (Origin software). IC50 values were determined using nonlinear regression analysis.

[2] = system: human cervical carcinoma cells HeLa; assay: Antiproliferative activity, CCK-8 assay, HeLa; type: cell-based; settings: CCK-8, 72 hours, mean ± SD, read-out: IC50 HeLa
Experimental: (§1) Antitumor activities in vitro of synthetic compounds were measured using CCK-8 Assay Kit (BPS Bioscience, CA) according to the manufacturer's protocol. Cells were plated into 96-well plates with appropriate test compounds for 72 hours. Control cells were treated with serum free medium. Then CCK-8 solution was added to each well to determine cell viability. The IC50 values were calculated according to the dose-dependent curves (Origin software). IC50 values were determined using nonlinear regression analysis.

[3] = system: human lung adenocarcinoma cells A549; assay: Antiproliferative activity, CCK-8 assay, A549; type: cell-based; settings: CCK-8, 72 hours, mean ± SD
Experimental: as §2

[4] = molecular target: T1, human recombinant HDAC1 (Homo sapiens, UniProt Q13547); assay: HDAC activity assay (fluorogenic HDAC assay kit), HDAC1; type: biochemical; settings: human recombinant HDAC1, 37 °C, 30 min
T1 construct: purchased BPS Bioscience, CA
T1 sequence (Q13547 whole entry): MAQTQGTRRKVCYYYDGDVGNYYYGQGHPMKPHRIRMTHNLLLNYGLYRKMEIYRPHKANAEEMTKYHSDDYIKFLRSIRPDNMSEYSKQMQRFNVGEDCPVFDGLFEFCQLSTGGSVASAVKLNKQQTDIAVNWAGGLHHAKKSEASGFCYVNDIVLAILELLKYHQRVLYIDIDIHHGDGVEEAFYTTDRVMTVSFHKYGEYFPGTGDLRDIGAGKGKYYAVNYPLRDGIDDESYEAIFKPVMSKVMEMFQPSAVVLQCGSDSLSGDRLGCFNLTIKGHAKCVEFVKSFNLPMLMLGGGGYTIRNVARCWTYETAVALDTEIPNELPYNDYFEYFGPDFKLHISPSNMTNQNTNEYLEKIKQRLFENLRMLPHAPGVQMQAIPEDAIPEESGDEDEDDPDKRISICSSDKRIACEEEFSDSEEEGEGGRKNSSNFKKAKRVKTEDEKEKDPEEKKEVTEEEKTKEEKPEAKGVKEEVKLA
Experimental: (§3) HDAC activity was measured using fluorogenic HDACs assay kit (BPS Bioscience, CA) according to the manufacturer's protocol. […] Fluorescence values were measured at an excitation of 350 nm and an emission of 440 nm using SpectraMax M2 microplate reader. IC50 values were calculated using Origin software. IC50 values were determined using nonlinear regression analysis.

[5] = system: tubulin; assay: Tubulin polymerization assay; type: biochemical; settings: in words
Chain of tubulin (P02550 whole entry): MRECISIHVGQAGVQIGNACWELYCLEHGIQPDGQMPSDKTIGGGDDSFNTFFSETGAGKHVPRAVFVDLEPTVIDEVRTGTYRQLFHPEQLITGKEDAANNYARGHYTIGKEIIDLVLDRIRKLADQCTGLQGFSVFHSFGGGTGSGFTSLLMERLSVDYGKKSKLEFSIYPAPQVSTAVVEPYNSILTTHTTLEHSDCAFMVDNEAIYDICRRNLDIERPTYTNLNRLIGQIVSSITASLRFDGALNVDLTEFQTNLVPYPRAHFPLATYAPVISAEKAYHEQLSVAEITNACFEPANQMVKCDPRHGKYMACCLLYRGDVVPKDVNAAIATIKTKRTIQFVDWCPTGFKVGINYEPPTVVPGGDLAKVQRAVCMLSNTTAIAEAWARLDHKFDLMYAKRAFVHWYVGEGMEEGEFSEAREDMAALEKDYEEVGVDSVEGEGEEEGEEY
Chain of tubulin (P02554 whole entry, further chain): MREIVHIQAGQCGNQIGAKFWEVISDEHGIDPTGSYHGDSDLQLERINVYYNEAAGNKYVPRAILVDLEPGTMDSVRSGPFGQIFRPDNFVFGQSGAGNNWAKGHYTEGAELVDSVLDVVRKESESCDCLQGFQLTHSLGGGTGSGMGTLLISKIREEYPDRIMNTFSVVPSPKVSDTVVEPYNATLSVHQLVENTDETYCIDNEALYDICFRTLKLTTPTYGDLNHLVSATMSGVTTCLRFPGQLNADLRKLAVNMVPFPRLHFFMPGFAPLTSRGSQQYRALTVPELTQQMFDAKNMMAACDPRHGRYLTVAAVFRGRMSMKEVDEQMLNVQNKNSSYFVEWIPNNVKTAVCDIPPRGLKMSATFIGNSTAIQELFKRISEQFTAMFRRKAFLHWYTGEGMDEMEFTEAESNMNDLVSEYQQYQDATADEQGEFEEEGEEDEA
Experimental: Tubulin polymerization assay was performed using a fluorescence-based tubulin polymerization assay Kit (BK011, Cytoskeleton, Inc.) according to the manufacturer's protocol. […] After addition of polymerization buffer and 0.4 mM GTP, the reaction mixtures were transferred to 0 °C cuvettes in a recording spectrophotometer. […] Data from each well was normalized relative to initial readings,[43] and plots of ΔODmax (final−initial values) against compound concentration, expressed relative to vehicle control (DMSO only), were used to calculate IC50 values.[44] IC50 values were determined using nonlinear regression analysis.

[6] = system: breast cancer cells MCF-7; assay: Antiproliferative activity, CCK-8 assay, MCF-7; type: cell-based; settings: Homo sapiens, MCF7; CCK-8, 72 hours; mean ± SD
Experimental: as §2

[7] = system: prostate cancer cells PC-3; assay: Antiproliferative activity, CCK-8 assay, PC-3; type: cell-based; settings: Homo sapiens; CCK-8, 72 hours; mean ± SD
Experimental: as §2

[8] = system: healthy MCF-10A cells; assay: Toxicity to healthy cells, CCK-8 assay, MCF-10A; type: cell-based; settings: Homo sapiens, MCF-10A; healthy cells, CCK-8, 72 hours; >100 = not determinable up to highest concentrations tested
Experimental: as §2

[9] = molecular target: T2, human recombinant HDAC6 (Homo sapiens, UniProt Q9UBN7); assay: HDAC activity assay (fluorogenic HDAC assay kit), HDAC6; type: biochemical; settings: for IC50: human recombinant HDAC6, 37 °C, 30 min; for Selectivity index HDAC6/1: ratio of IC50 HDAC1 to IC50 HDAC6; for Selectivity index HDAC6/2: ratio of IC50 HDAC2 to IC50 HDAC6;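 as to all read-outs here: underlying HDAC activity read as fluorescence, excitation 350 nm and emission 440 nm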
T2 construct: purchased BPS Bioscience, CA
T2 sequence (Q9UBN7 1-1215): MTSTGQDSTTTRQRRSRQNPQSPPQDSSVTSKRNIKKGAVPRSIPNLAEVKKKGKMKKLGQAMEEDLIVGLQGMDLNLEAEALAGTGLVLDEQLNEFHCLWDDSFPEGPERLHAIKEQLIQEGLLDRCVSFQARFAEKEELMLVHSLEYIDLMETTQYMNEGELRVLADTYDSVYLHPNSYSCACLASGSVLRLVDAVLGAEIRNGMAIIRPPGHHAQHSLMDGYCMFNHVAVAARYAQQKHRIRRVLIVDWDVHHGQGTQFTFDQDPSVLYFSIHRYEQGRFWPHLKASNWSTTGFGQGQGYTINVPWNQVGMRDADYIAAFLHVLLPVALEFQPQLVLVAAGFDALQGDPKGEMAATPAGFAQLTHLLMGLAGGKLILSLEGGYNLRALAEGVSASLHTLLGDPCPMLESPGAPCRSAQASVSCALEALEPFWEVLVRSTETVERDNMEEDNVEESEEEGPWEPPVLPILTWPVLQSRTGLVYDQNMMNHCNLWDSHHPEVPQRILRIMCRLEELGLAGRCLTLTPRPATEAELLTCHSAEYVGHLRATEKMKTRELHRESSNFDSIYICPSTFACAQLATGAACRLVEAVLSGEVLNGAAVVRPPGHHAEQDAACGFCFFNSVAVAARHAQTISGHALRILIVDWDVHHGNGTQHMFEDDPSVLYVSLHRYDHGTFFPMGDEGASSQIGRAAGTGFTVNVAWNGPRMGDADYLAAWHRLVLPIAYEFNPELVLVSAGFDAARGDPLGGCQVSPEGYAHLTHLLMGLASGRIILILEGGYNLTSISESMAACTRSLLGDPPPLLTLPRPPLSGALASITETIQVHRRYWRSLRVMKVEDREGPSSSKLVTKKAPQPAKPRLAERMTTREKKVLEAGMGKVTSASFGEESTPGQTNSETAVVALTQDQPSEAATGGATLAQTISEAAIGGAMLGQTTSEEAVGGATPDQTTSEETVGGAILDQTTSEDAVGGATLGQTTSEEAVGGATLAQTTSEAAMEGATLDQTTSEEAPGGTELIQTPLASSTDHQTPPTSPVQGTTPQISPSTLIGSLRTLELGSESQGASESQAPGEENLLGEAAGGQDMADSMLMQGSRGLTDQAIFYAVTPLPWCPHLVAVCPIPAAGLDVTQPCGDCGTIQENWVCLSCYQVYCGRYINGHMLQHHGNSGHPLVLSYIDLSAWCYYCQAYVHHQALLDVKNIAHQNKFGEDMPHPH
Experimental: as §3

[10] = molecular target: T3, human recombinant HDAC2 (Homo sapiens, UniProt Q92769); assay: HDAC activity assay (fluorogenic HDAC assay kit), HDAC2; type: biochemical; settings: human recombinant HDAC2, 37 °C, 30 min
T3 construct: purchased BPS Bioscience, CA
T3 sequence (Q92769 whole entry): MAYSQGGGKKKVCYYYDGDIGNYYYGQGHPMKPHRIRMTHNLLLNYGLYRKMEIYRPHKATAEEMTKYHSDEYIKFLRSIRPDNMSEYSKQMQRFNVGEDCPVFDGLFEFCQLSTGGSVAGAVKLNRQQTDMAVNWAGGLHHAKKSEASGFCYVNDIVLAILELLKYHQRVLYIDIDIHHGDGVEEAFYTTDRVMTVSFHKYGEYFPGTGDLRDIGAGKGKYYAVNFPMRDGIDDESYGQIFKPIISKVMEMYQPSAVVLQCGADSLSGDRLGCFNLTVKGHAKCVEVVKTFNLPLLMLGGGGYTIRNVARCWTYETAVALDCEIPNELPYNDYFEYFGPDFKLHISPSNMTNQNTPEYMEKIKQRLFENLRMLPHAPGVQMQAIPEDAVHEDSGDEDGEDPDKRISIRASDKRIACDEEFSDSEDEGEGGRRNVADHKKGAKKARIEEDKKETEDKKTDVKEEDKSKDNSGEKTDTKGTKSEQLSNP
Experimental: as §3

[11] = system: five cancer cells, A549, HepG2, MCF-7, PC-3, HeLa; assay: Antiproliferative activity, CCK-8 assay, statements on all five cancer cell lines; type: cell-based, human
Experimental: as §1

| Structure (SMILES) | IC50 [1] | IC50 [2] | IC50 [3] | IC50 [4] | tubulin polymerization inhibition compared with reference compound [5] | IC50 [6] | IC50 [7] | melting point | IC50 [8] | IC50 [9] | Selectivity index HDAC6/1 [9] | Selectivity index HDAC6/2 [9] | IC50 [10] | fold more potent than levofloxacin, antiproliferative activity ([11]; against all cancer cells) | IC50 ([11]; Homo sapiens, A549, HepG2, MCF-7, PC-3, HeLa, read-out: IC50 proliferation of the five cancer cells) |
| --- | --- | --- | --- | --- | --- | --- | --- | --- | --- | --- | --- | --- | --- | --- | --- |
| C[C@H]1COc2c(N3CCN(C)CC3)c(F)cc3c(=O)c(C(=O)NCc4cn(CCCCCCC(=O)O)nn4)cn1c23 [Compound 7b, (S)-7-(4-((9-fluoro-3-methyl-10-(4-methylpiperazin-1-yl)-7-oxo-3,7-dihydro-2H-[1,4]oxazino[2,3,4-ij]quinoline-6-carboxamido)methyl)-1H-1,2,3-triazol-1-yl)heptanoic acid] | 9.9 ± 0.62 µM | 8.4 ± 0.62 µM | 9.3 ± 0.82 µM | 2.1 ± 0.37 µM | equipotent to reference compound CA-4 | 7.8 ± 0.71 µM | 11.1 ± 1.16 µM | 187 to 190 °C | > 100 µM | 1.1 ± 0.28 µM | 1.9 | 4.2 | 4.6 ± 0.62 µM | – | – |
| C[C@H]1COc2c(N3CCN(C)CC3)c(F)cc3c(=O)c(C(=O)OCc4cn(CCCCCCC(=O)NO)nn4)cn1c23 [Compound 8b, (S)-(1-(7-(hydroxyamino)-7-oxoheptyl)-1H-1,2,3-triazol-4-yl)methyl-9-fluoro-3-methyl-10-(4-methylpiperazin-1-yl)-7-oxo-3,7-dihydro-2H-[1,4]oxazino[2,3,4-ij]quinoline-6-carboxylate] | 5.2 ± 0.56 µM | 2.7 ± 0.17 µM | 3.5 ± 0.17 µM | 0.067 ± 0.019 µM | equipotent to reference compound CA-4 | 0.8 ± 0.15 µM | 8.5 ± 0.79 µM | – | > 100 µM | 0.03 ± 0.019 µM | 2.2 | 2.7 | 0.082 ± 0.015 µM | – | – |
| C[C@H]1COc2c(N3CCN(C)CC3)c(F)cc3c(=O)c(C(=O)NCc4cn(CCCCCCC(=O)NO)nn4)cn1c23 [Compound 9b, (S)-9-Fluoro-N-((1-(7-(hydroxyamino)-7-oxoheptyl)-1H-1,2,3-triazol-4-yl)methyl)-3-methyl-10-(4methylpiperazin-1-yl)-7-oxo-3,7-dihydro-2H-[1,4]oxazino[2,3,4-ij]quinoline-6-carboxamide] | 2.3 ± 0.31 µM | 1.1 ± 0.15 µM | 2.1 ± 0.26 µM | 0.029 ± 0.018 µM | equipotent to reference compound CA-4 | 0.3 ± 0.14 µM | 4.9 ± 0.43 µM | – | > 100 µM | 0.021 ± 0.007 µM | 1.4 | 2.0 | 0.041 ± 0.014 µM | over 20 fold | – |
| C[C@H]1COc2c(N3CCN(C)CC3)c(F)cc3c(=O)c(C(=O)O)cn1c23 [Levofloxacin, levofloxacin, reference compound] | > 100 µM | 71.1 ± 4.98 µM | 76.3 ± 6.51 µM | – | – | 64.2 ± 5.67 µM | > 100 µM | – | > 100 µM | – | – | – | – | – | > 70 µM |
